Test results from US11795152B2, “Crystal form of tafamidis and preparation method therefor and use thereof” (CRYSTAL PHARMACEUTICAL (SUZHOU) CO., LTD., priority 2019, dated 2023).
“Also recorded” adds a separate entry of the source.

What was measured:
Format in all cases: physicochemical
[1] = Dissolution profile of capsules in pH6.8 PBS; conditions: capsule 61 mg, paddle 50 rpm, 37° C.
Protocol: The cumulative dissolution was measured at different time in pH6.8 PBS.

[2] = Dissolution profile of tablets in pH6.8 PBS+1% Tween 80; conditions: tablet 61 mg, paddle 75 rpm, 37° C.
Protocol: (§1) The cumulative dissolution was measured at different time in pH6.8 PBS+1% Tween 80 and pH6.8 PBS+3% Tween 80. The dissolution results are presented in Table 24 (FIG. 23) and Table 25 (FIG. 24).
The cumulative dissolution was measured at different time in pH6.8 PBS+1% Tween 80.

[3] = Compressibility (manual tablet press, tensile strength); conditions: 80 mg, φ6 mm round tooling, 10 KN; for Hardness: 24 hours recovery; for Tensile strength: T=2H/πDL*9.8
Protocol: An ENERPAC manual tablet press was used for tableting. […] Diameter (D) and thickness (L) were tested with a caliper. Hardness (H) was tested with an intelligent tablet hardness tester. Tensile strength of the powder was calculated with the following formula: T=2H/πDL*9.8. Under a certain force, the greater the tensile strength, the better the compressibility.
Diameter (D) and thickness (L) were tested with a caliper. Hardness (H) was tested with an intelligent tablet hardness tester. Tensile strength of the powder was calculated with the following formula: T=2H/πDL*9.8. Under a certain force, the greater the tensile strength, the better the compressibility.

[4] = Grinding stability (XRPD before and after grinding); conditions: manually ground in the mortar for five minutes
Text: A certain amount of Form CSV and WO2016038500 Form 1 were manually ground in the mortar for five minutes.

[5] = Dissolution profile of tablets in pH6.8 PBS+3% Tween 80; conditions: tablet 61 mg, paddle 75 rpm, 37° C.
Protocol: as §1

[6] = Adhesiveness (material sticking to the punch); conditions: 30 mg, φ8 mm round tooling, 10 KN held for 30 s
Protocol: The punch was weighed and amount of material sticking to the punch was calculated. The compression was repeated twice and the cumulative amount, maximum amount and average amount of material sticking to the punch during the compression were recorded.

[7] = Hygroscopicity by dynamic vapor sorption (DVS); conditions: 80% RH; for Weight gain: 25° C., DVS; for hygroscopicity: pharmacopoeia definition
Protocol: Dynamic Vapor Sorption (DVS) is measured via a SMS (Surface Measurement Systems Ltd.) intrinsic DVS instrument. Its control software is DVS-Intrinsic control software. Typical parameters for DVS tests are as follows:
Gas and flow rate: N2, 200 mL/min
RH range: 0% RH to 95% RH
The weight gains at each relative humidity were recorded in a cycle of 0-95%-0 RH. The XRPD patterns were collected before and after the DVS test and depicted in FIG. 11.
Description and definition of hygroscopicity (general notice 9103 drug hygroscopicity test guidelines in 2015 edition of Chinese Pharmacopoeia, test at 25° C.+/−1° C., 80% RH. The definition of hygroscopicity in the 9th European Pharmacopoeia 5.11 is in consistent with the Chinese Pharmacopoeia.). • deliquescent: sufficient water is absorbed to form a solution. • very hygroscopic: increase in mass is equal to or greater than 15 percent. • hygroscopic: increase in mass is less than 15 percent and equal to or greater than 2 percent. • slightly hygroscopic: increase in mass is less than 2 percent and equal to or greater than 0.2 percent. • non hygroscopic or almost non hygroscopic: Increase in mass is less than 0.2%.
The weight gains at each relative humidity were recorded in a cycle of 0-95%-0RH. The XRPD patterns were collected before and after the DVS test and depicted in FIG. 22. […] Form CSVI is slightly hygroscopic.
The weight gains at each relative humidity were recorded in a cycle of 0-95%-0RH. The XRPD patterns were collected before and after the DVS test and depicted in FIG. 31.

[8] = Stability of drug substance on storage (XRPD, HPLC purity); conditions: for chemical purity during storage: drug substance
Text: Crystalline form and chemical impurity were checked by XRPD and HPLC, respectively.
Crystalline form and purity were checked by XRPD and HPLC, respectively.

[9] = Stability of Form CSV in drug product; conditions: for Purity % / Solid Form: drug product
Text: X-ray powder diffraction patterns of drug product stability study in the present disclosure were acquired by a Bruker D8 Discover X-ray powder diffractometer. The parameters of the X-ray powder diffraction method of the present disclosure are as follows:
The XRPD patterns were collected before and after the formulation process.

[10] = 40° C./75% RH, Sealed, 6 months
[11] = 60° C./75% RH, Sealed, 2 months
[12] = 40° C./75% RH and 60° C./75% RH
[13] = double aluminum blister, 25° C./60% RH, 3 months
[14] = double aluminum blister, 40° C./75% RH, 3 months

## O=C(O)c1ccc2nc(-c3cc(Cl)cc(Cl)c3)oc2c1 [WO2016038500 Form 1, reference compound]
[1]; 0 min
  Cumulative drug release (%): 0.0%
[1]; 5 min
  Cumulative drug release (%): 14.0%
[1]; 10 min
  Cumulative drug release (%): 27.3%
[1]; 15 min
  Cumulative drug release (%): 29.1%
[1]; 20 min
  Cumulative drug release (%): 28.1%
[1]; 30 min
  Cumulative drug release (%): 27.6%
[1]; 45 min
  Cumulative drug release (%): 26.8%
[1]; 60 min
  Cumulative drug release (%): 21.8%
[2]; 0 min
  Cumulative drug release in pH 6.8 PBS + 1% Tween 80 (%): 0.0%
[2]; 5 min
  Cumulative drug release in pH 6.8 PBS + 1% Tween 80 (%): 4.0%
[2]; 10 min
  Cumulative drug release in pH 6.8 PBS + 1% Tween 80 (%): 10.4%
[2]; 15 min
  Cumulative drug release in pH 6.8 PBS + 1% Tween 80 (%): 15.6%
[2]; 20 min
  Cumulative drug release in pH 6.8 PBS + 1% Tween 80 (%): 19.5%
[2]; 30 min
  Cumulative drug release in pH 6.8 PBS + 1% Tween 80 (%): 25.7%
[2]; 45 min
  Cumulative drug release in pH 6.8 PBS + 1% Tween 80 (%): 33.0%
[2]; 60 min
  Cumulative drug release in pH 6.8 PBS + 1% Tween 80 (%): 38.4%
[2]; 90 min
  Cumulative drug release in pH 6.8 PBS + 1% Tween 80 (%): 46.8%
[2]; 120 min
  Cumulative drug release in pH 6.8 PBS + 1% Tween 80 (%): 53.3%
[2]; 150 min
  Cumulative drug release in pH 6.8 PBS + 1% Tween 80 (%): 61.4%
[3]
  Hardness: 2.32 kgf
  Tensile strength: 1.78 MPa
[4]
  crystallinity after grinding: decreases
[5]; 0 min
  Cumulative drug release in pH 6.8 PBS + 3% Tween 80 (%): 0.0%
[5]; 5 min
  Cumulative drug release in pH 6.8 PBS + 3% Tween 80 (%): 22.7%
[5]; 10 min
  Cumulative drug release in pH 6.8 PBS + 3% Tween 80 (%): 33.1%
[5]; 15 min
  Cumulative drug release in pH 6.8 PBS + 3% Tween 80 (%): 39.7%
[5]; 20 min
  Cumulative drug release in pH 6.8 PBS + 3% Tween 80 (%): 45.0%
[5]; 30 min
  Cumulative drug release in pH 6.8 PBS + 3% Tween 80 (%): 52.5%
[5]; 45 min
  Cumulative drug release in pH 6.8 PBS + 3% Tween 80 (%): 60.5%
[5]; 60 min
  Cumulative drug release in pH 6.8 PBS + 3% Tween 80 (%): 65.9%
[5]; 90 min
  Cumulative drug release in pH 6.8 PBS + 3% Tween 80 (%): 73.0%
[5]; 120 min
  Cumulative drug release in pH 6.8 PBS + 3% Tween 80 (%): 77.2%
[6]
  Average amount (mg) of material sticking to the punch: 0.265 mg

## O=C(O)/C=C/C(=O)O.O=C(O)c1ccc2nc(-c3cc(Cl)cc(Cl)c3)oc2c1.O=C(O)c1ccc2nc(-c3cc(Cl)cc(Cl)c3)oc2c1 [Form CSV]
[1]; 0 min
  Cumulative drug release (%): 0.0%
[1]; 5 min
  Cumulative drug release (%): 6.6%
[1]; 10 min
  Cumulative drug release (%): 67.6%
[1]; 15 min
  Cumulative drug release (%): 82.8%
[1]; 20 min
  Cumulative drug release (%): 88.4%
[1]; 30 min
  Cumulative drug release (%): 89.1%
[1]; 45 min
  Cumulative drug release (%): 87.4%
[1]; 60 min
  Cumulative drug release (%): 86.4%
[7]
  Weight gain: 0.09%
  hygroscopicity: non hygroscopic or almost non-hygroscopic; also recorded: non-hygroscopic or almost non-hygroscopic
[3]
  Hardness: 4.85 kgf
  Tensile strength: 2.86 MPa
[4]
  crystallinity after grinding: keeps substantially unchanged
[8]; 25° C./60% RH, Open, 6 months
  Purity: 99.96%
  Solid Form: Form CSV
[8]; 40° C./75% RH, Open, 6 months
  Purity: 99.96%
  Solid Form: Form CSV
[8]; [10]
  Purity: 99.96%
  Solid Form: Form CSV
[8]; 60° C./75% RH, Open, 2 months
  Purity: 99.94%
  Solid Form: Form CSV
[8]; [11]
  Purity: 99.94%
  Solid Form: Form CSV
[8]; Initial
  Purity: 99.96%
  Solid Form: Form CSV
[8]; 25° C./60% RH
  chemical purity during storage: above 99.9%
[8]; [12]
  chemical purity during storage: above 99.9%
[9]; Initial
  Purity %: 99.84%
  Solid Form: Form CSV
[9]; [13]
  Purity %: 99.87%
  Solid Form: Form CSV
[9]; [14]
  Purity %: 99.86%
  Solid Form: Form CSV
[9]; formulation of Table 10, process of Table 11
  stability in the formulation process (XRPD before and after): stable in the formulation process

## O=C(O)CCCC(=O)O.O=C(O)c1ccc2nc(-c3cc(Cl)cc(Cl)c3)oc2c1.O=C(O)c1ccc2nc(-c3cc(Cl)cc(Cl)c3)oc2c1 [Form CSVI]
[7]
  Weight gain: 0.21%
  hygroscopicity: slightly hygroscopic (increase in mass is less than 2 percent and equal to or greater than 0.2 percent)
[2]; 0 min
  Cumulative drug release in pH 6.8 PBS + 1% Tween 80 (%): 0.0%
[2]; 5 min
  Cumulative drug release in pH 6.8 PBS + 1% Tween 80 (%): 19.1%
[2]; 10 min
  Cumulative drug release in pH 6.8 PBS + 1% Tween 80 (%): 28.3%
[2]; 15 min
  Cumulative drug release in pH 6.8 PBS + 1% Tween 80 (%): 34.7%
[2]; 20 min
  Cumulative drug release in pH 6.8 PBS + 1% Tween 80 (%): 39.8%
[2]; 30 min
  Cumulative drug release in pH 6.8 PBS + 1% Tween 80 (%): 47.4%
[2]; 45 min
  Cumulative drug release in pH 6.8 PBS + 1% Tween 80 (%): 56.0%
[2]; 60 min
  Cumulative drug release in pH 6.8 PBS + 1% Tween 80 (%): 62.1%
[2]; 90 min
  Cumulative drug release in pH 6.8 PBS + 1% Tween 80 (%): 70.4%
[2]; 120 min
  Cumulative drug release in pH 6.8 PBS + 1% Tween 80 (%): 75.7%
[2]; 150 min
  Cumulative drug release in pH 6.8 PBS + 1% Tween 80 (%): 80.7%
[8]; 25° C./60% RH, Open, 6 months
  Purity: 99.96%
  Solid Form: Form CSVI
[8]; 40° C./75% RH, Open, 6 months
  Purity: 99.95%
  Solid Form: Form CSVI
[8]; [10]
  Purity: 99.95%
  Solid Form: Form CSVI
[8]; [11]
  Purity: 99.95%
  Solid Form: Form CSVI
[8]; Initial
  Purity: 99.95%
  Solid Form: Form CSVI
[8]; 25° C./60% RH
  chemical purity during storage: above 99.9%
[8]; [12]
  chemical purity during storage: above 99.9%
[5]; 0 min
  Cumulative drug release in pH 6.8 PBS + 3% Tween 80 (%): 0.0%
[5]; 5 min
  Cumulative drug release in pH 6.8 PBS + 3% Tween 80 (%): 27.0%
[5]; 10 min
  Cumulative drug release in pH 6.8 PBS + 3% Tween 80 (%): 38.2%
[5]; 15 min
  Cumulative drug release in pH 6.8 PBS + 3% Tween 80 (%): 46.4%
[5]; 20 min
  Cumulative drug release in pH 6.8 PBS + 3% Tween 80 (%): 51.9%
[5]; 30 min
  Cumulative drug release in pH 6.8 PBS + 3% Tween 80 (%): 60.4%
[5]; 45 min
  Cumulative drug release in pH 6.8 PBS + 3% Tween 80 (%): 68.5%
[5]; 60 min
  Cumulative drug release in pH 6.8 PBS + 3% Tween 80 (%): 73.8%
[5]; 90 min
  Cumulative drug release in pH 6.8 PBS + 3% Tween 80 (%): 79.2%
[5]; 120 min
  Cumulative drug release in pH 6.8 PBS + 3% Tween 80 (%): 81.9%
